Assay results: paper PMC10411625, “Rationally designed stapled peptides allosterically inhibit PTBP1–RNA-binding” (Chemical Science, 2023)
Read-outs that look alike come from different tables or passages of the source.

Target: T1, PTBP1 RRM12 (Homo sapiens, UniProt P26599)
T1 construct: (P57-V265); MBP (from pMAL vector); His tag; made in house; host or cells: E. coli BL21 DE3 RIL
T1 sequence (P26599 57-265): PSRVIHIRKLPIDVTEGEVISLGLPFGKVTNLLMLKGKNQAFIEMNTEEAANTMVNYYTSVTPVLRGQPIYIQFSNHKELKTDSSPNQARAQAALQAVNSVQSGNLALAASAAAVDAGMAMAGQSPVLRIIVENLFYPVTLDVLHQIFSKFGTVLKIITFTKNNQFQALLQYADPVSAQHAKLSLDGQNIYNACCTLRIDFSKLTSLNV
Assay: Competitive fluorescence polarization assay between RRM12 and RNA-2
Assay type: binding
Excerpt: For the initial design we used the i, i + 4 strategy where two (S)-pentenyl alanines (S5) were introduced in positions with three other amino acids in between. We picked three different amino acid pairs to replace with the S5 amino acids based on their orientation as observed in the NMR structures (P-2, P-3 and P-4, Fig. 2B and C).[25] To prevent the staple from disturbing the interaction between the ligand and the protein we chose positions facing away from the binding site forming the pairs Ala145/Ala149, Gln148/Gln152, and Ala149/Ala153. The three peptides were synthesized on Rink amide resin and the linear peptides were treated with a Grubbs catalyst to connect the S5 residues. To avoid a mixture of E/Z-diastereomers we reduced the alkene in the linker of the staple using a solution phase hydrogenation protocol.[43] The linear equivalent P-1 was synthesized for comparison but had to be extended on the C-terminus with an arginine residue to improve its solubility. The C-terminus is away from the binding surface and this modification was therefore not expected to have an impact on the binding affinity. The peptides were tested in a competitive fluorescence polarization assay using the RRM12 construct and RNA-2 (Fig. 2C and S2 ^†). […] As the staple is expected to stabilize the α-helical conformation we used circular dichroism (CD) spectroscopy to evaluate the helicity of the peptides. […] It is possible that although P-4 was more helical than P-3, the replacement of Gln148 with the hydrophobic linker disturbed the interaction since the side chain amide potentially interacts with the RRM1 surface. […]
size exclusion chromatography (Superdex 75 16/60 or 26/60) with SEC buffer (50 mM Tris, 200 mM NaCl). Protein homogeneity was assessed by the size exclusion chromatogram and purity was checked by SDS-PAGE analysis to be >= 90%.
The gene encoding for SRSF1-RRM12 (1-195) was subcloned into pOPIN-His expression vector and expressed in E. coli BL21 (DE3). A pre-culture of transformed bacteria was made followed by expression in LB-Medium (100 µg/ml Ampicillin, 1 mM IPTG, 18 °C, 160 rpm overnight) after growing the culture at 37 °C, 160 rpm to an OD600 of 0.6. The harvested cells (5000 x g, 4 °C, 15 min) were resuspended in Buffer ASRSF1 (50 mM Na2HPO4 pH 8.0, 300 mM KCl, 50 mM L-Arg, 50 mM L-Gly, 1.5 mM MgCl2) supplemented with 1 mM PMSF followed by lysis through sonification. The protein was purified using a HisTrap HP 5 ml column (GE-Healthcare) using a gradient of Buffer BSRSF1 (50 mM Na2HPO4 pH 8.0, 300 mM KCl, 50 mM L-Arg, 50 mM L-Gly, 1.5 mM MgCl2, 500 mM Imidazole) followed by dialysis into wash buffer (50 mM Na2HPO4 pH 8.0, 300 mM KCl, 50 mM L-Arg, 50 mM L-Gly, 1.5 mM MgCl2, 40 mM Imidazole) and a second run of the affinity column. The protein containing fractions were afterwards dialyzed into wash buffer with tag-cleavage using His-tagged 3C protease. The cleaved construct was subsequently used for a third affinity column run collecting the unbound fraction which was dialyzed into storage buffer (20 mM Na2HPO4 pH 8.0, 150 mM KCl, 50 mM L-Arg, 50 mM L-Gly, 1.5 mM MgCl2, 0.2 mM EDTA, 1 mM TCEP).
Purification of hnRNP A2/B1
The MBP-tagged hnRNP A2/B1 construct (1-251) was expressed from a pOPIN-His-MBP vector in E. coli BL21 (DE3) RIPL cells. A pre-culture in TB (0.01% lactose, 2mM MgSO4, 100 µg/ml ampicillin, 50 µg/ml chloramphenicol) was used to inoculate the expression culture with a starting OD600 of 0.05 at 37 °C. Expression was autoinduced at 37 °C for 4 h followed by expression over night at 25 °C. Harvested cells (5000 x g, 15 min, 4 °C) were resuspended in Buffer AhnRNPA2/B1 (50 mM HEPES pH 8.0, 300 mM NACl, 20 mM Imidazole, 1 mM TCEP) supplemented with 1 mM PMSF) and lysed with a microfluidizer.
Immobilized metal affinity chromatography was performed using a HisTrap FF crude 5 ml column. The loaded protein was washed with wash buffer (50 mM HEPES pH 8.0, 300 mM NaCl, 30 mM Imidazole, […]

[1] = Fig. 2C, 5 nM FAM-RNA-2, protein at 50-70 % probe binding, FP buffer pH 8.0, 20 °C, 30 min, n.b. given for inactive peptides, read-out: Ki, competitive FP assay between RRM12 and RNA-2

CC(=O)N[C@@H](CC(N)=O)C(=O)N[C@@H](CCC(N)=O)C(=O)N[C@@]1(C)CCCCCCCC[C@@](C)(C(=O)N[C@@H](C)C(=O)N[C@@H](CC(C)C)C(=O)N[C@@H](CCC(N)=O)C(=O)N[C@@H](C)C(=O)N[C@H](C(=O)N[C@@H](CC(N)=O)C(N)=O)C(C)C)NC(=O)[C@H](CCC(N)=O)NC(=O)[C@H](C)NC(=O)[C@H](CCCNC(=N)N)NC1=O [Peptide P-2]
Ki [1]: 11.6 µM

CC(=O)N[C@@H](CC(N)=O)C(=O)N[C@@H](CCC(N)=O)C(=O)N[C@@]1(C)CCCC=CCCCC2(CCCC=CCCC[C@](C)(C(=O)N[C@H](C(=O)N[C@@H](CC(N)=O)C(N)=O)C(C)C)NC(=O)[C@H](CCC(N)=O)NC(=O)[C@H](CC(C)C)NC(=O)[C@H](C)NC2=O)NC(=O)[C@H](CCC(N)=O)NC(=O)[C@H](C)NC(=O)[C@H](CCCNC(=N)N)NC1=O (stereo partly drawn) [Peptide P-6]
Ki [1]: 9.3 µM
Ki (Fig. 3C experiment, competitive FP with RNA-2, read-out: P-6 Ki, construct RRM12): 8 ± 7.1 µM
